Experimental data taken from PMC12196235, “Enhancing the Pharmacological Properties of Triterpenes Through Acetylation: An Anticancer and Antioxidant Perspective” (Molecules, 2025).
Several values for one entry are separate records, joined by “and”; a condition that tells them apart may be missing. Equal entries are not always repeated. Where two headings read alike, the source gives them in different places.

What was measured:
[1] = system: FTC-238 (human thyroid carcinoma); details: ref 47; read-out: anticancer IC50 (FTC-238); cited from earlier work
[2] = system: P-388 (murine lymphocytic leukemia); details: ref 49, cited from earlier work
[3] = system: A-549 (human lung carcinoma); details: ref 47; read-out: anticancer IC50 (A-549); cited from earlier work
[4] = system: SW-707 (human colon carcinoma); details: ref 49, cited from earlier work
[5] = system: SKOV-3 (human ovarian carcinoma); experiment: MTT assay, SKOV-3; format: cell-based
[6] = system: CCRF-CEM, CEM (human T lymphoblastic leukemia); details: cited from earlier work
CUPRAC antioxidant assay = details: calculated from Trolox standard curve
Procedure, shortened: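 The CUPRAC reagent was made from 7.5 mM neocuproine, 10 mM CuCl2 and ammonium acetate buffer pH 7.0; the DPPH reagent was a 0.2 mM solution. Both were read spectrophotometrically in plates. Activity is given as % inhibition and as Trolox equivalents from standard curves.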

[7] = system: PC-3 (human prostate carcinoma); experiment: MTT assay, PC-3; format: cell-based
[8] = system: MCF-7 (human breast carcinoma); experiment: MTT assay, MCF-7; format: cell-based
Procedure, shortened: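 Using the MTT method, survival of cancer lines and normal dermal fibroblasts was quantified by formazan formation. Culture: DMEM for HeLa, RPMI 1640 for MCF-7 and A-549, Fibroblast Basal Medium for HDF, with 10% FBS, 37 °C.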

[9] = system: HPGBM (human glioblastoma multiforme); details: ref 47; read-out: anticancer IC50 (HPGBM); cited from earlier work
[10] = system: Jurkat 1E.6 (human T cell leukemia); details: ref 47; read-out: anticancer IC50 (Jurkat 1E.6); cited from earlier work
[11] = system: HPCC (human cervical carcinoma); details: ref 47; read-out: anticancer IC50 (HPCC); cited from earlier work
[12] = system: HeLa, KB, MCF-7, A-549, PC-3 and SKOV-3; experiment: MTT assay, summary over the cancer cell lines; format: cell-based, human; details: classification by IC50 (good ≤ 10 μM, moderate 10–30 μM, ref 83)
Experimental: All the cell lines and mediums were obtained from the American Type Culture Collection (ATCC) supplied by LGC-Standards (Lomianki, Poland). Human cancer cell lines were cultured as follows: HeLa (human cervix carcinoma) and KB (human oral squamous carcinoma) lines were cultured in DMEM (Dulbecco’s Modified Eagle’s Medium); MCF-7 (human breast carcinoma) and A-549 (human lung carcinoma) were cultured in RPMI 1640 medium; PC-3 (human prostate carcinoma) was cultured in F-12K medium; SKOV-3 (human ovarian cystadenocarcinoma) was cultured in McCoy’s modified medium; HDF (human normal dermal fibroblasts) was cultured in Fibroblast Basal Medium. Each medium was supplemented with 10% fetal bovine serum, 1% L- glutamine and 1% penicillin/streptomycin solution. The cell lines were kept in an incubator at 37 °C.
All the tested cell lines (HeLa, KB, MCF-7, A-549, PC-3, SKOV-3 and HDF) were subjected to MTT assay. In short, this assay is based on the reaction between mitochondria enzymes (dehydrogenases) of tested cell lines and 3-(4,5-dimethylthiazol-2-yl)-2,5-diphenyltetrazolium bromide (MTT). The final product of this reaction gives violet formazan crystals. The number of live cells is proportional to the amount of formazan and is represented by the violet dye reagent. The details of the experiments are given in [19].

[13] = system: HT-29 (human colorectal adenocarcinoma); details: ref 47; read-out: anticancer IC50 (HT-29); cited from earlier work

C=C(C)[C@@H]1CC[C@]2(CO)CC[C@]3(C)[C@H](CC[C@@H]4[C@@]5(C)CC[C@H](O)C(C)(C)[C@@H]5CC[C@]43C)[C@@H]12 [5a, betulin]
IC50 [1]: 6.8 µM
anticancer IC50 (P-388) [2]: 5.5 µg/mL
IC50 ([2]; read-out: anticancer IC50 (P-388)): 12.4 µM
IC50 [3]: 7.4 µM
anticancer IC50 (SW-707) [4]: 22.9 µg/mL
IC50 ([4]; read-out: anticancer IC50 (SW-707)): 51.7 µM
IC50 ([5]; Homo sapiens, SK-OV-3, MTT assay, SKOV-3, read-out: IC50 (±SD), SKOV-3): 6.95 µM
Selectivity index (SI), SKOV-3 ([5]; IC50 HDF / IC50 SKOV-3): 2.27
IC50 ([6]; ref 26, read-out: anticancer IC50 (CCRF-CEM, CEM)): 250 µM
anticancer IC50 (CCRF/CEM) ([6]; ref 49): 10.9 µg/mL
IC50 ([6]; ref 49, read-out: anticancer IC50 (CCRF/CEM)): 24.6 µM
Trolox Equivalent, CUPRAC Assay (CUPRAC antioxidant assay): 0.299 mg/mL and 0.299 ± 0.00663 mg/mL
IC50 ([7]; Homo sapiens, MTT assay, PC-3, read-out: IC50 (±SD), PC-3): 6.22 µM
Selectivity index (SI), PC-3 ([7]; IC50 HDF / IC50 PC-3): 2.54
IC50 ([8]; Homo sapiens, MCF7, MTT assay, MCF-7, read-out: IC50 (±SD), MCF-7): 18.1 µM
Selectivity index (SI), MCF-7 ([8]; IC50 HDF / IC50 MCF-7): 0.87
IC50 [9]: 3.4 µM
IC50 [10]: 6.7 µM
IC50 [11]: 3.4 µM
cytotoxic activity class [12]: high or moderately high activity
IC50 [13]: 4.3 µM
